Results as given in US11390609B2, “Rho-associated protein kinase inhibitor, pharmaceutical composition comprising same, and preparation method and use thereof” (BEIJING TIDE PHARMACEUTICAL CO., LTD., priority 2017, dated 2022).

molecular target: ROCK1 (Homo sapiens (Human), UniProt Q13464); experiment: ROCK1 kinase IC50 assay (biological test method similar to the ROCK2 assay); format: biochemical
Description: The kinase IC50 was determined by a commercialized CISBIO kinase detection kit, HTRF KinEASE-STK S2 kit (62ST2PEC). ROCK2 (01-119) employed in the reaction was purchased from Carna Biosciences.
Before the assay, the following working solutions as needed were formulated with corresponding reagents according to the instruction of the kinase detection kit: 1×kinase buffer, 5×STK-52 substrate working solution (1.5 μM) and 5×ATP working solution (1.5 μM), 5×ROCK2 kinase working solution, 4×Streptavidin-XL665 working solution, and 4×STK-Ab-Cryptate 2 detection solution. Then the assay was performed according to the following procedure.
A solution of a compound at a concentration of 10000 nM was prepared with the 1×kinase buffer containing 2.5% DMSO. Gradient dilution of the solution of the compound was performed with the kinase buffer containing DMSO, so as to obtain solutions of a test compound at 9 different concentrations. In addition to wells of test compounds, a positive well (containing all the reagents except the compound) and a negative well (containing all the reagents except the test compound and kinase) were set. Except for the control wells (positive and negative wells), a solution of a test compound (4 μL) was added to each of the reaction wells, and a solution of 2.5% DMSO was added to the control wells. Then the substrate ([…], 2 μL. 5×STK-S2 substrate working solution) was added to each of the reaction wells. The 5×ROCK2 kinase working solution (2 μL, containing 1.4 ng ROCK2 kinase) was added to each of the reaction wells except for the negative well, the volume of which was made up with the 1×kinase buffer (2 μL). The 5×ATP working solution (2 μL) was added to each of the reaction wells, and the mixtures were incubated at room temperature for 2 hours. After the kinase reaction was complete, the 4×Streptavidin-XL665 working solution was added to each of the reaction wells, the solutions were mixed, followed by immediate addition of the 4×STK-Ab-Cryptate 2 detection solution (5 μL), and the mixtures were incubated at room temperature for 1 hour. The fluorescence signal was read on ENVISION (Perkinelmer) (excitation wavelength: 320 nm, and emission wavelength: 665 nm and 615 nm). The inhibitory rate in each well was calculated based on the fluorescence intensity value: ER (Emission Ratio)=(fluorescence intensity at 665 nm/fluorescence intensity at 615 nm); inhibitory rate=(ERpositive−ERtest compound)/(ERpositive−ERnegative)*100%. Curves were plotted and fitted to obtain the median inhibitory concentration (IC50) of each teat compound with the PRISM 5.0 software.
According to a biological test method similar to the above, the IC50 values of the compounds on ROCK1 were tested.

Chain of ROCK1 (Q13464 whole entry, species assumed): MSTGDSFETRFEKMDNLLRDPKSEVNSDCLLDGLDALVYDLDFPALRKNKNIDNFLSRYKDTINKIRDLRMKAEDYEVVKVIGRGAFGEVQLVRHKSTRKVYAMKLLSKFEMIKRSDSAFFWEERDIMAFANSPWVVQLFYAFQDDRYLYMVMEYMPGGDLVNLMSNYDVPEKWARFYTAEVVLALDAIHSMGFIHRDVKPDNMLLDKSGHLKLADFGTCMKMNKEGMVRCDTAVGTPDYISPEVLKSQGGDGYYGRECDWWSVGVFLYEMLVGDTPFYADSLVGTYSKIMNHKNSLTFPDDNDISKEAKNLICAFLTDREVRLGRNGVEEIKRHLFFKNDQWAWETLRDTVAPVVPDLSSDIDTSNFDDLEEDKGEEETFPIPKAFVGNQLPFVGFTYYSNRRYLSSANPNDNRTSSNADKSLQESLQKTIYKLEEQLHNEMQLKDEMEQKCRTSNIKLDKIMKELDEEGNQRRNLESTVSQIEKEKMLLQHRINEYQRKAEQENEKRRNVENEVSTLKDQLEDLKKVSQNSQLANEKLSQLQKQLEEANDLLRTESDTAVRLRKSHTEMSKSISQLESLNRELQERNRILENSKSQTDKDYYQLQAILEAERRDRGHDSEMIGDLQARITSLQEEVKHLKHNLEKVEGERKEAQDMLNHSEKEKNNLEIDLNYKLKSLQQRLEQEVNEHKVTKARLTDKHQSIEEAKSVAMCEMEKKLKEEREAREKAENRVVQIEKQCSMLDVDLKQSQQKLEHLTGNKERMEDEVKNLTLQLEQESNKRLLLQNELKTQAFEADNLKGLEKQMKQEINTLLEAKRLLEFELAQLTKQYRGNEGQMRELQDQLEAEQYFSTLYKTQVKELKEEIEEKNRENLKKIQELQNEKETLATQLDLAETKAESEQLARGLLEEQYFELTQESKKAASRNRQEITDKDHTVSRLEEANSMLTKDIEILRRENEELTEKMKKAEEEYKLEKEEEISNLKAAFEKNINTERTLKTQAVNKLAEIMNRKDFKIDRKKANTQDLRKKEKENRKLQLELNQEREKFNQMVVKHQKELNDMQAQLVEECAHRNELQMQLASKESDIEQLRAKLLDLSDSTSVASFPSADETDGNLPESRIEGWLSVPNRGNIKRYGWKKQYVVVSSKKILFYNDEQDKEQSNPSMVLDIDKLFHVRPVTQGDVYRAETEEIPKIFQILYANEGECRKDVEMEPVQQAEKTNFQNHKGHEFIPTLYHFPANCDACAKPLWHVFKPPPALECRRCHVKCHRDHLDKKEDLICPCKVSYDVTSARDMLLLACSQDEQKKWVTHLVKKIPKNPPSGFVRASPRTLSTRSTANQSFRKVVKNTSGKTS

SMILES | IC50 [nM]
O=C(N1Cc2ccc(-c3nccc(Nc4ccc(-c5cn[nH]c5)cc4)n3)cc2C1)N1CC(F)(F)C1 [TDI01467] | > 10000
CN(C)C(=O)N1Cc2ccc(-c3nccc(Nc4ccc(-c5cn[nH]c5)cc4)n3)cc2C1 [TDI01366, 5-(4-((4-(1H-pyrazol-4-yl)phenyl)amino)pyrimidin-2-yl)-N,N-dimethylisoindoline-2-carboxamide] | > 10000
CN(C)C(=O)c1cc2ccc(-c3nccc(Nc4ccc5[nH]ncc5c4)n3)cc2s1 [TDI01110, 6-(4-((1H-indazol-5-yl)amino)pyrimidin-2-yl)-N, N-dimethylben-zo[b]thiophene-2-carboxamide] | > 10000
O=C(c1cc2ccc(-c3nccc(Nc4ccc(-c5cn[nH]c5)cc4)n3)cc2[nH]1)N1CC(C(F)(F)F)C1 [TDI01433, (6-(4-((4-(1H-pyrazol-4-yl)phenyl)amino)pyrimidin-2-yl)-1H-indol-2-yl)(3-(trifluoromethyl)azetidin-1-yl)methanone] | 1970
O=C(c1cc2ccc(-c3nccc(Nc4ccc(-c5cn[nH]c5)cc4)n3)cc2[nH]1)N1CC(F)(F)C1 [TDI01434, (6-(4-((4-(1H-pyrazol-4-yl)phenyl)ami-no)pyrimidin-2-yl)-1H-indol-2-yl)(3,3-difluoroazetidin-1-yl)methanone] | > 10000
CCNC(=O)N1Cc2ccc(-c3nccc(Nc4ccc(-c5cn[nH]c5)cc4)n3)cc2C1 [TDI01411, 5-(4-((4-(1H-pyrazol-4-yl)phenyl)amino)pyrimidin-2-yl)-N-ethylisoindoline-2-carboxamide] | > 10000
CC(C)NC(=O)C1Cc2ccc(-c3nccc(Nc4ccc5[nH]ncc5c4)n3)cc2N1 (stereo not drawn) [TDI01292, 6-(4-((1H-indazol-5-yl)amino)-pyrimidin-2-yl)-N-isopropyl-indoline-2-carboxamide] | 4840
CCN(CCO)C(=O)c1cc2ccc(-c3nccc(Nc4ccc(-c5cn[nH]c5)cc4)n3)cc2[nH]1 [TDI01415, 6-(4-((4-(1H-pyrazol-4-yl)phenyl)-amino)-pyrimidin-2-yl)-N-ethyl-N-(2-hydroxyethyl)-1H-indole-2-carboxamide] | 3720
O=C(c1cc2ccc(-c3nccc(Nc4ccc(-c5cn[nH]c5)cc4)n3)cc2[nH]1)N1CCOC[C@H]1CO [TDI01853, (R)-(6-(4-((4-(1H-pyrazol-4-yl)phenyl)-amino)-pyrimidin-2-yl)-1H-indol-2-yl)(3-(hydroxy-methyl)-morpholino)-methanone] | 2830
CC(C)NC(=O)c1cc2ccc(-c3nc(Nc4ccc5[nH]ncc5c4)c4cc[nH]c4n3)cc2[nH]1 [TDI01143, 6-(4-((1H-indazol-5-yl)amino)-7H-pyrrolo[2,3-d]pyrimidin-2-yl)-N-isopropyl-1H-indole-2-carboxamide] | 1480
CN1CCN(C(=O)c2cc3ccc(-c4nccc(Nc5ccc(-c6cn[nH]c6)cc5)n4)cc3[nH]2)CC1 [TDI01343, (6-4(-((4-(1H-pyrazol-4-yl)phenyl)-amino)-pyrimidin-2-yl)-1H-indol-2-yl)(4-methyl-piperazin-1-yl)methanone] | 7110
O=C(C1CC(F)(F)C1)N1Cc2ccc(-c3ncc(F)c(Nc4ccc(-c5cn[nH]c5)cc4)n3)cc2C1 [TDI01978, (5-(4-((4-(1H-pyrazol-4-yl)phenyl)amino)-5-fluoropyrimidin-2-yl)isoindolin-2-yl)(3,3-difluorocyclobutyl) methanone] | > 10000
O=C(NC1CCC1)c1cc2ccc(-c3nc(Nc4ccc(-c5cn[nH]c5)cc4)c4sccc4n3)cc2[nH]1 [TDI01424, 6-(4-((4-(1H-pyrazol-4-yl)phenyl)-amino)-thieno-[3,2-d]-pyrimidin-2-yl)-N-cyclobutyl-1H-indole-2-carboxamide] | 4980
CN1CCN(CC(=O)n2ccc3ccc(-c4nccc(Nc5ccc6[nH]ncc6c5)n4)cc32)CC1 [TDI01230, 1-(6-(4-((1H-indazol-5-yl)amino)pyrimidin-2-yl)-1H-indol-1-yl)-2-(4-methylpiperazin-1-yl)ethan-1-one] | 1500
O=C(c1cc2ccc(-c3nccc(Nc4ccc(-c5cn[nH]c5)cc4)n3)cc2[nH]1)N1CCC1 [TDI01330, (6-(4-((4-(1H-pyrazol-4-yl)phenyl)-amino)-pyrimidin-2-yl)-1H-indol-2-yl)(azetidin-1-yl)methanone] | 7930
CN(C(=O)c1cc2ccc(-c3nccc(Nc4ccc(-c5cn[nH]c5)cc4)n3)cc2[nH]1)c1ccncc1 [TDI01421, 6-(4-((4-(1H-pyrazol-4-yl)phenyl)-amino)-pyrimidin-2-yl)-N-methyl-N-(pyridin-4-yl)-1H-indole-2-carboxamide] | 5940
O=C(c1cc2ccc(-c3nccc(Nc4ccc(-c5cn[nH]c5)c(F)c4)n3)cc2[nH]1)N1CC(F)(F)C1 [TDI01842B, (3,3-difluoroazetidin-1-yl)(6-(4-((3-fluoro-4-(1H-pyrazol-4-yl)phenyl)ami-no)pyrimidn-2-yl)-1H-indol-2-yl)methanone] | 2770
O=C(NC1CC1)c1cc2ccc(-c3nccc(Nc4ccc5[nH]ncc5c4)n3)cc2s1 [TDI01111, 6-(4-((1H-indazol-5-yl)amino)pyrimidin-2-yl)-N-cyclopropylben-zo[b]thiophene-2-carboxamide] | 1410

The remaining lines, values ahead:

IC50 [nM] | SMILES
> 10000 | Cc1cnc(-c2ccc3cc(C(=O)Nc4ccnnc4)[nH]c3c2)nc1Nc1ccc2[nH]ncc2c1 [TDI01250, 6-(4-((1H-indazol-5-yl)amino)-5-methyl-pyrimidin-2-yl)-N-(pyridazin-4-yl)-1H-indole-2-carboxamide]
573 | O=C(NC1CCOCC1)c1cc2ccc(-c3nccc(Nc4ccc5[nH]ncc5c4)n3)cc2[nH]1 [TDI01291, 6-(4-((1H-indazol-5-yl)amino)-pyrimidin-2-yl)-N-(tetrahydro-2H-pyran-4-yl)-1H-indole-2-carboxamide]
1990 | O=C(Nc1cnoc1)c1cc2ccc(-c3nccc(Nc4ccc5[nH]ncc5c4)n3)cc2[nH]1 [TDI01156, 6-(4-((1H-indazol-5-yl)amino)-pyrimidin-2-yl)-N-(isoxazol-4-yl)-1H-indole-2-carboxamide]
980 | CN(C)c1cnccc1NC(=O)c1cc2ccc(-c3nccc(Nc4ccc5[nH]ncc5c4)n3)cc2[nH]1 [TDI01289, 6-(4-((1H-indazol-5-yl)amino)-pyrimidin-2-yl)-N-(3-(dimethylamino)-pyridin-4-yl)-1H-indole-2-carboxamide]
1370 | Cn1cc(NC(=O)c2cc3ccc(-c4nccc(Nc5ccc6[nH]ncc6c5)n4)cc3[nH]2)cn1 [TDI01134, 6-(4-((1H-indazol-5-yl)amino)-pyrimidin-2-yl)-N-(1-methyl-1H-pyrazol-4-yl)-1H-indole-2-carboxamide]
> 10000 | O=C(Nc1ccncc1Cl)c1cc2ccc(-c3nccc(Nc4ccc5[nH]ncc5c4)n3)cc2[nH]1 [TDI01290, 6-(4-((1H-indazol-5-yl)amino)-pyrimidin-2-yl)-N-(3-chloropyridin-4-yl)-1H-indole-2-carboxamide]
> 10000 | O=C(Nc1ccnnc1)c1cc2ccc(-c3nccc(Nc4ccc5[nH]ncc5c4)n3)cc2s1 [TDI01116, 6-(4-((1H-indazol-5-yl)amino)-pyrimidin-2-yl)-N-(pyridazin-4-yl)benzo[b]-thiophene-2-carboxamide]
2780 | O=C(Nc1ccnnc1Cl)c1cc2ccc(-c3nccc(Nc4ccc5[nH]ncc5c4)n3)cc2[nH]1 [TDI01180]
> 10000 | O=C(Nc1ccnnc1)c1cc2ccc(-c3ncnc(Nc4ccc5[nH]ncc5c4)n3)cc2[nH]1 [TDI01167, 6-(4-((1H-indazol-5-yl)amino)-1,3,5-triazin-2-yl)-N-(pyridazin-4-yl)-1H-indole-2-carboxamide]
1280 | O=C(Nc1ccnnc1)c1cc2cc(-c3nccc(Nc4ccc5[nH]ncc5c4)n3)ccc2[nH]1 [TDI01188, 5-(4-((1H-indazol-5-yl)amino)-pyrimidin-2-yl)-N-(pyridazin-4-yl)-1H-indole-2-carboxamide]
999 | CN1CCC(n2cc(NC(=O)c3cc4ccc(-c5nccc(Nc6ccc7[nH]ncc7c6)n5)cc4[nH]3)cn2)CC1 [TDI01316, 6-(4-((1H-indazol-5-yl)amino)-pyrimidin-2-yl)-N-(1-(1-methyl-piperidin-4-yl)-1H-pyrazol-4-yl)-1H-indole-2-carboxamide]
2240 | O=C(Nc1cnccn1)c1cc2ccc(-c3nccc(Nc4ccc5[nH]ncc5c4)n3)cc2[nH]1 [TDI01160, 6-(4-((1H-indazol-5-yl)amino)pyrimidin-2-yl)-N-(pyrazin-2-yl)-1H-indole-2-carboxamide]
